Source: patent US20250171417A1, “HETEROCYCLIC DERIVATIVE, AND COMPOSITION AND PHARMACEUTICAL USE THEREOF” (Xizang Haisco Pharmaceutical Co., Ltd., priority 2021, published 2025)

System: Prostate cancer cells 22RV1
Assay: Experiment on inhibiting 22RV1 cell proliferation (CellTiter-Glo, 7 days)
Assay type: cell-based
Settings: Homo sapiens, 168 h, 22RV1 cells, 7 days incubation, cells with nM printed beside the value, read-out: IC50 values for inhibition of 22RVI cells
Protocol: Prostate cancer cells 22RV1 were purchased from ATCC, the cell medium was RPMI 1640+10% FBS, and the cells were cultured in an incubator at 37° C. under 5% CO2. On day 1, the cells in the exponential growth phase were collected. With a 1% css-FBS phenol red-free medium, the cell suspension was adjusted to a corresponding concentration, plated at 2000 cells/well and incubated overnight. On day 2, compounds at different concentrations were added, and the plate was placed in the incubator and incubated for further 7 days. After the incubation was completed, according to operation instructions for a CellTiter-Glo kit (Promega, G7573), 50 μL of CellTiter-Glo reagents, which were already pre-melted and equilibrated to room temperature, were added to each well, and the mixtures were uniformly mixed for 2 min using a microplate shaker. The plate was placed at room temperature for 10 min. and then […] signal values were measured using a microplate reader (PHERAstar FSX). The results were processed according to formula (I), the inhibition rate of the compound at different concentrations was calculated, and the IC50 value of the compound with an inhibition rate of 50% was calculated using origin9.2 software with DoseResp function, wherein RLUcompound was the readout of the treated group, and RLUcontrol was the average value of the DMSO vehicle control group.

Row | Structure (SMILES) | IC50 [nM]
1 | Cc1nn(C2(C(=O)Nc3ccc(C(F)(F)F)cc3Cl)CCC2)c(C)c1C#CC1CN(c2ccc3c(c2)C(=O)N(C2CCC(=O)NC2=O)C3=O)C1 (stereo not shown) [Compound 166, N-(2-chloro-4-(trifluoromethyl)phenyl)-1-(4-((1-(2-(2,6-dioxopiperidin-3-yl)-1,3-dioxoisoindolin-5-yl)azetidin-3-yl)ethynyl)-3,5-dimethyl-1H-pyrazol-1-yl)cyclobutane-1-carboxamide] | < 50
2 | C=CCc1cc(C(F)(F)F)ccc1NC(=O)C(C)(C)n1cc(C#CC2CN(c3ccc4c(c3)C(=O)N(C3CCC(=O)NC3=O)C4=O)C2)cn1 (stereo not shown) [Compound 169, N-(2-allyl-4-(trifluoromethyl)phenyl)-2-(4-((1-(2-(2,6-dioxopiperidin-3-yl)-1,3-dioxoisoindolin-5-yl)azetidin-3-yl)ethynyl)-1H-pyrazol-1-yl)-2-methylpropanamide] | < 50
3 | CC(C)(C(=O)Nc1ccc(C#N)cc1-n1cccn1)n1cc(C#CC2CN(c3ccc4c(c3)C(=O)N(C3CCC(=O)NC3=O)C4=O)C2)cn1 (stereo not shown) [Compound 172, N-(4-cyano-2-(1H-pyrazol-1-yl)phenyl)-2-(4-((1-(2-(2,6-dioxopiperidin-3-yl)-1,3-dioxoisoindolin-5-yl)azetidin-3-yl)ethynyl)-1H-pyrazol-1-yl)-2-methylpropanamide] | < 50
4 | [2H]C([2H])([2H])C(C(=O)Nc1ccc(C(F)(F)F)cc1C#CC)(n1cc(C#CC2CN(c3ccc4c(c3)C(=O)N(C3CCC(=O)NC3=O)C4=O)C2)cn1)C([2H])([2H])[2H] (stereo not shown) [Compound 175, 2-(4-((1-(2-(2,6-dioxopiperidin-3-yl)-1,3-dioxoisoindolin-5-yl)azetidin-3-yl)ethynyl)-1H-pyrazol-1-yl)-2-(methyl-d3)—N-(2-(prop-1-yn-1-yl)-4-(trifluoromethyl)phenyl) propanamide-d3] | < 100
5 | Cn1c(C(F)(F)F)ccc(NC(=O)C(C)(C)n2cc(C#CC3CN(c4ccc5c(c4)C(=O)N(C4CCC(=O)NC4=O)C5=O)C3)cn2)c1=O (stereo not shown) [Compound 178] | < 50
6 | CN(C)c1ccc(NC(=O)C2(n3cc(C#CC4CN(c5ccc6c(c5)C(=O)N(C5CCC(=O)NC5=O)C6=O)C4)cn3)CCC2)c(Cl)c1 (stereo not shown) [Compound 181, N-(2-chloro-4-(dimethylamino)phenyl)-1-(4-(2-(1-(2-(2,6-dioxopiperidin-3-yl)-1,3-dioxo-2,3-dihydro-1H-isoindol-5-yl)azetidin-3-yl)ethynyl)-1H-pyrazol-1-yl)cyclobutane-1-carboxamide] | < 50
7 | CN(C)c1cc(C(F)(F)F)ccc1NC(=O)C(C)(C)n1cc(C#CC2CN(c3ccc4c(c3)C(=O)N(C3CCC(=O)NC3=O)C4=O)C2)cn1 (stereo not shown) [Compound 182, N-(2-(dimethylamino)-4-(trifluoromethyl)phenyl)-2-(4-((1-(2-(2,6-dioxopiperidin-3-yl)-1,3-dioxoisoindolin-5-yl)azetidin-3-yl)ethynyl)-1H-pyrazol-1-yl)-2-methylpropanamide] | < 100
8 | Cc1nn(C(C)(C)C(=O)Nc2ccc(C#N)cc2C2CC2)cc1C#CC1CN(c2ccc3c(c2)C(=O)N(C2CCC(=O)NC2=O)C3=O)C1 (stereo not shown) [Compound 184, N-(4-cyano-2-cyclopropylphenyl)-2-(4-((1-(2-(2,6-dioxopiperidin-3-yl)-1,3-dioxoisoindolin-5-yl)azetidin-3-yl)ethynyl)-3-methyl-1H-pyrazol-1-yl)-2-methylpropanamide] | < 100
9 | [2H]C([2H])([2H])C(C(=O)Nc1ccc(C#N)cc1C1CC1)(n1cc(C#CC2CN(c3ccc4c(c3)C(=O)N(C3CCC(=O)NC3=O)C4=O)C2)cn1)C([2H])([2H])[2H] (stereo not shown) [Compound 186, N-(4-cyano-2-cyclopropylphenyl)-2-(4-((1-(2-(2,6-dioxopiperidin-3-yl)-1,3-dioxoisoindolin-S-yl)azetidin-3-yl)ethynyl)-1H-pyrazol-1-yl)-2,2-(dimethyl-d6) acetamide] | < 100
10 | [2H]C([2H])([2H])C(C(=O)Nc1ccc(C(F)(F)F)cc1C1CC1)(n1cc(C#CC2CN(c3ccc4c(c3)C(=O)N(C3CCC(=O)NC3=O)C4=O)C2)cn1)C([2H])([2H])[2H] (stereo not shown) [Compound 187, N-(2-cyclopropyl-4-(trifluoromethyl)phenyl)-2-(4-((1-(2-(2,6-dioxopiperidin-3-yl)-1,3-dioxoisoindolin-5-yl)azetidin-3-yl)ethynyl)-1H-pyrazol-1-yl)-2,2-(dimethyl-d6) acetamide] | < 100
11 | C#Cc1cc(C#N)ccc1NC(=O)C(C)(C)n1cc(C#CC2CN(c3ccc4c(c3)C(=O)N(C3CCC(=O)NC3=O)C4=O)C2)cn1 (stereo not shown) [Compound 189, N-(4-cyano-2-ethynylphenyl)-2-(4-((1-(2-(2,6-dioxopiperidin-3-yl)-1,3-dioxoisoindolin-5-yl)azetidin-3-yl)ethynyl)-1H-pyrazol-1-yl)-2-methylpropanamide] | < 100
12 | CC(C)(C(=O)Nc1ccc(C(F)(F)F)cc1C=C(F)F)n1cc(C#CC2CN(c3ccc4c(c3)C(=O)N(C3CCC(=O)NC3=O)C4=O)C2)cn1 (stereo not shown) [Compound 190, N-(2-(2,2-difluorovinyl)-4-(trifluoromethyl)phenyl)-2-(4-((1-(2-(2,6-dioxopiperidin-3-yl)-1,3-dioxoisoindolin-5-yl)azetidin-3-yl)ethynyl)-1H-pyrazol-1-yl)-2-methylpropanamide] | < 100
13 | CC#Cc1cc(C(F)(F)F)ccc1NC(=O)C(C)(C)n1nc(C)c(C#CC2CN(c3ccc4c(c3)C(=O)N(C3CCC(=O)NC3=O)C4=O)C2)c1C (stereo not shown) [Compound 192, 2-(4-((1-(2-(2,6-dioxopiperidin-3-yl)-1,3-dioxoisoindolin-5-yl)azetidin-3-yl)ethynyl)-3,5-dimethyl-1H-pyrazol-1-yl)-2-methyl-N-(2-(prop-1-yn-1-yl)-4-(trifluoromethyl)phenyl) propanamide] | < 100
14 | CC#Cc1cc(C(F)(F)F)ccc1NC(=O)C(C)(C)n1cc(C#CC2CN(c3ccc4c(c3)C(=O)N(C3CCC(=O)NC3=O)C4=O)C2)c(C)n1 (stereo not shown) [Compound 193, 2-(4-((1-(2-(2,6-dioxopiperidin-3-yl)-1,3-dioxoisoindolin-5-yl)azetidin-3-yl)ethynyl)-3-methyl-1H-pyrazol-1-yl)-2-methyl-N-(2-(prop-1-yn-1-yl)-4-(trifluoromethyl)phenyl) propanamide] | < 100
15 | CC#Cc1cc(C(F)(F)F)ccc1NC(=O)C(C)(C)n1ncc(C#CC2CN(c3ccc4c(c3)C(=O)N(C3CCC(=O)NC3=O)C4=O)C2)c1C (stereo not shown) [Compound 194, 2-(4-((1-(2-(2,6-dioxopiperidin-3-yl)-1,3-dioxoisoindolin-5-yl)azetidin-3-yl)ethynyl)-5-methyl-1H-pyrazol-1-yl)-2-methyl-N-(2-(prop-1-yn-1-yl)-4-(trifluoromethyl)phenyl) propanamide] | < 100
16 | CC(C)(C(=O)Nc1ccc(C#N)cc1C1CC1)n1cc(C#CC2CN(c3ccc4c(c3)C(=O)N(C3CCC(=O)NC3=O)C4=O)C2)c(C#N)n1 (stereo not shown) [Compound 201, N-(4-cyano-2-cyclopropylphenyl)-2-(3-cyano-4-((1-(2-(2,6-dioxopiperidin-3-yl)-1,3-dioxoisoindolin-5-yl)azetidin-3-yl)ethynyl)-1H-pyrazol-1-yl)-2-methylpropanamide] | < 100
17 | CC#Cc1cc(C(F)(F)F)ccc1NC(=O)C(C)(C)n1cc(C#CC2CN(c3ccc4c(c3)C(=O)N(C3CCC(=O)NC3=O)C4=O)C2)c(C#N)n1 (stereo not shown) [Compound 202, 2-(3-cyano-4-((1-(2-(2,6-dioxopiperidin-3-yl)-1,3-dioxoisoindolin-5-yl)azetidin-3-yl)ethynyl)-1H-pyrazol-1-yl)-2-methyl-N-(2-(prop-1-yn-1-yl)-4-(trifluoromethyl)phenyl) propanamide] | < 100

Same assay, conditions: Homo sapiens, 168 h, 22RV1 cells, 7 days incubation, cells without a unit of their own (μM), read-out: IC50 values for inhibition of 22RVI cells

Row | Structure (SMILES) | IC50 [nM]
18 | O=C1CCC(N2C(=O)c3ccc(N4CC(N5Cc6cn(C7(C(=O)Nc8ccc(C(F)(F)F)cc8Cl)CCC7)nc6C5)C4)cc3C2=O)C(=O)N1 (stereo not shown) [Compound 197, N-(2-chloro-4-(trifluoromethyl)phenyl)-1-(5-(1-(2-(2,6-dioxopiperidin-3-yl)-1,3-dioxoisoindolin-5-yl)azetidin-3-yl)-5,6-dihydropyrrolo[3,4-c]pyrazol-2 (4H)-yl)cyclobutane-1-carboxamide] | < 1000
19 | O=C1CCC(N2C(=O)c3ccc(N4CC(C#Cc5cn(C6(C(=O)Nc7ccc(C(F)(F)F)cc7Cl)CCC6)cn5)C4)cc3C2=O)C(=O)N1 (stereo not shown) [Trifluoroacetate of compound 139, N-(2-chloro-4-(trifluoromethyl)phenyl)-1-(4-((1-(2-(2,6-dioxopiperidin-3-yl)-1,3-dioxoisoindolin-5-yl)azetidin-3-yl)ethynyl)-1H-imidazol-1-yl)cyclobutane-1-carboxamide] | < 1000
